{"source": "patent US20080146650A1", "about": "“PHARMACEUTICAL COMPOSITION COMPRISING A-LIPOIC ACID FOR INFLAMMATORY DISEASES” (priority 2005, published 2008)", "key": {"SP-1": {"system": "SP-1", "test": "EMSA for SP-1 binding activity in nuclear extracts of HUVECs", "settings": "FIG. 5b", "method": "Briefly, the cells were lysed in a hypotonic buffer (10 mmol/L HEPES, pH 7.9, 1.5 mmol/L MgCl2, 10 mmol/L KCl, 0.5 mmol/L DTT, 0.5 mmol/L PMSF) containing 0.6% NP-40 and centrifuged at 4000 rpm for 15 min. […] Seventy five microliter of storage buffer (20 mmol/L HEPES, pH7.9, 100 mmol/L NaCl, 20% glycerol, 0.2 mmol/L EDTA, 0.5 mmol/L PMSF, 0.5 mmol/L DTT) was added, agitated for 10 sec by vortexing, and centrifused at 14,000 rpm for 20 min. […] EMSA for SP-1 protein was performed with biotin-labeled SP-1 binding site oligomer 5′-[sequence]"}, "[1]": {"system": "fractalkine expression in rat small intestine", "test": "Immunohistochemical analysis of fractalkine expression in small intestine of LPS-induced endotoxemia rats", "type": "in vivo", "settings": "LA pretreatment before LPS, 12 hours, FIGS. 7a, 7b", "experimental": "(§1) Inbred male Sprague-Dawley rats (150-200 g) were obtained from Orient (Charles River Korea, Seoul, Korea) and were maintained on standard laboratory chow and water ad libitum. All animal studies were reviewed and approved by the Institutional Animal Care and Use Committee of Chonbuk National University Medical School. The rats (180-220 g) were divided into 3 groups; control (n=6), LPS (10 mg/kg) (n=6), and LPS (10 mg/kg) plus LA (10 mg/kg/day) (n=6). Control buffer and LPS were injected intravenously through the tail vein. LA was injected intraperitoneally once per day for three days prior to LPS administration. At 12 hours postinjection of vehicle or LPS, rats were anesthetized with ketamine (100 mg/kg) and xylazine (10 mg/kg), and subsequently sacrificed by cervical dislocation. Heart and jejunum were harvested for RNase protection assay, Western blot, and immunohistochemistry.\n(§2) After sacrifice, the hearts and jejunums were quickly excised, rinsed with PBS, and frozen in OCT in methyl-butane on dry ice. Frozen tissue blocks were sectioned at […], and 8-12 sections of heart or jejunum from each rat were incubated with anti-fractalkine antibody at 4 C overnight. […] Fractalkine expression was semi-quantitated by grading the degree of immunostaining (very strong=5, strong=4, moderate=3, weak=2, none=1). […]"}, "fractalkine protein": {"system": "fractalkine protein", "test": "Western blot analysis of fractalkine protein in HUVECs", "type": "cell-based, human", "experimental": "(§3) Recombinant human TNF-α was purchased from R&D Systems (Minneapolis, Minn.). Anti-fractalkine antibody was purchased from Torrey Pines BioLabs (Houston, Tex.). LPS was purchased from Sigma-Aldrich (St. Louis, Mo.). LA (Thioctacid 600®) was obtained from VIATRIS GmbH & Co. KG (Frankfurt, Germany). Calcein-AM was purchased from Molecular Probe (Eugene, Oreg.). Media, sera, and other biochemical reagents were purchased from Sigma-Aldrich, unless otherwise specified. HUVECs were prepared from human umbilical cords by collagenase digestion as previously described (Kim W et al., FASEB J. 2003 17: 1337-19395. Homogeneity of endothelial cells in cultures was confirmed by the presence of factor VIII using immunofluorescence method. HUVECs were maintained in M-199 medium supplemented with 20% (vol/vol) fetal bovine serum at 37° C. in a 5% CO2atmosphere. The primary cultured cells used in this study were between 2 and 4 passages.\nWestern blot analyses were performed as previously described (Aim S Y et al., Am J Pathol 2004 164: 1663-1672). Samples were mixed with sample buffer, boiled for 10 minutes, separated by SDS-PAGE electrotransfered to nitrocellulose membranes. The nitrocellulose membranes were blocked by incubation in blocking buffer, incubated with anti-fractalkine monoclonal antibody, washed, and incubated with horseradish peroxidase-conjugated secondary antibody. […]"}, "fractalkine mRNA": {"system": "fractalkine mRNA", "test": "RNase protection assay (RPA) for fractalkine mRNA in HUVECs", "type": "cell-based, human", "experimental": "as §3\nA part of cDNA of human fractalkine (nucleotides 482-893, GenBank accession NM002996) was amplified by PCR and subcloned into pBluescript II KS+ (Stratagene, La Jolla, Calif.). After linearizing with EcoRI, ^32P-labeled antisense RNA probes were synthesized by in vitrotranscription using T7 polymerase (Ambion Maxiscript kit; Ambion, Austin, Tex.) and gel purified. RPA was performed on total RNAs using the Ambion RPA kit (Ambion, Austin, Tex.). An antisense RNA probe of human cyclophilin (nucleotides 135-239, GenBank accession X52856) was used as an internal control for RNA quantification."}, "[2]": {"system": "fractalkine expression in rat heart", "test": "Immunohistochemical analysis of fractalkine expression in heart of LPS-induced endotoxemia rats", "type": "in vivo", "settings": "LA 10 mg/kg/day for 3 days before LPS 10 mg/kg i.v., 12 hours", "experimental": "as §1, §2"}, "[3]": {"system": "adhesion of monocytes to HUVECs", "test": "Monocyte adhesion assay on HUVECs", "type": "cell-based, human", "settings": "for increase in the adhesion of monocytes compared to treatment with control buffer: stimulation of HUVECs for 6 hours, TNF-α 10 ng/ml or IL-1β 15 ng/ml", "text": "Human peripheral blood monocytes were isolated from fresh blood of healthy volunteers by Ficoll-Paque gradient centrifugation. The study protocol and informed consent forms were approved by the Chonbuk. National University Hospital Review Board. Monocytes were isolated by negative selection using magnetic beads (Miltenyi Biotec, Bergisch Gladbach, Germany) (Ancuta P et al., J Exp Med 2003 197: 1701-1707). The purity of the monocyte fraction was 93-95% as determined by staining with anti-CD14, anti-CD33, anti-CD16b, and anti-CD56 mAbs and FACScan analysis (Becton Dickinson, Franklin Lakes, N.J.). Monocyte-endothelial adhesion was determined by fluorescent labeling of monocytes by a method described previously (Kim W. et al., Arterioscler Thromb Vase Biol 2003 23: 1377-1383). A number of monocytes adhered to HUVECs was expressed as percent calculated by the formula: % signal/total signal)."}, "NF-κB (p65/p50)": {"system": "NF-κB (p65/p50)", "test": "EMSA for NF-κB binding activity in nuclear extracts of HUVECs", "type": "cell-based, human", "experimental": "EMSA for NF-κB proteins was performed as previously described (Kim I et al., J Biol Chem 2001 276: 7614-7620). Briefly, the cells were lysed in a hypotonic buffer (10 mmol/L HEPES, pH 7.9, 1.5 mmol/L MgCl2, 10 mmol/L KCl, 0.5 mmol/L DTT, 0.5 mmol/L PMSF) containing 0.6% NP-40 and centrifuged at 4000 rpm for 15 min. The pellet was lysed in […] of a high salt buffer (20 mmol/L HEPES, pH 7.9, 420 mmol/L NaCl, 25% glycerol, 1.5 mmol/L MgCl2, 0.2 mmol/L EDTA, 0.5 mmol/L PMSF, 0.5 mmol/L DTT) for 20 min on ice. Seventy five microliter of storage buffer (20 mmol/L HEPES, pH7.9, 100 mmol/L NaCl, 20% glycerol, 0.2 mmol/L EDTA, 0.5 mmol/L PMSF, 0.5 mmol/L DTT) was added, agitated for 10 sec by vortexing, and centrifused at 14,000 rpm for 20 min. Nuclear extracts ([…]) were incubated with approximately 20,000 cpm of ^32P-labeled NF-κB binding site oligomer 5′-[…]-3′ (SEQ ID NO: 1) (Santa Cruz Biotechnology, Santa Cruz, Calif.) for […] at 20 C. EMSA for SP-1 protein was performed with biotin-labeled SP-1 binding site oligomer 5′-[…] (SEQ ID NO: 2) and signals were detected by chemiluminescent imaging according to the manufacturer's protocol (EMSA Gel-Shift. Kit; Panomics, Redwood City, Calif.).\nWe previously reported that NF-κB is involved in TNF-α induced fractalkine expression in HUVECs (Ahn S Y et al., Am J Pathol 2004 164: 1663-1672). […]"}, "serum TNF-α": {"system": "serum TNF-α", "test": "Serum TNF-α by ELISA after intravenous LPS in rats", "type": "in vivo, rat", "settings": "for serum level of TNF-α: rats, LPS 10 mg/kg intravenous by tail vein", "experimental": "(§4) Blood samples (0.5 ml) were taken from rats at 0, 1, 2, 3, and 4 hours after the administration of LPS (10 mg/kg) or vehicle. Serum concentrations of TNF-α and IL-1β were determined by using ELISA kits (Endogen, Woburn, Mass.).\n(§5) Serum concentrations of TNF-α and IL-1β were determined by using Enzyme-Linked Immunosorbent Assay (ELISA) Kits (Endogen, Woburn, Mass.). […] Thus, we used TNF-α- and IL-1β in this experiment.\nas §1"}, "serum IL-1β": {"system": "serum IL-1β", "test": "Serum IL-1β by ELISA after intravenous LPS in rats", "type": "in vivo, rat", "settings": "for serum level of IL-1β: rats, LPS 10 mg/kg intravenous by tail vein", "experimental": "as §4, §5, §1"}}, "data": [{"molecule": "O=C(O)CCCCC1CCSS1", "note": "(stereo not shown) [LA, 1,2-dithiolane-3-pentanoic acid]", "values": [{"measurement": "effect on TNF-α- and/or IL-1β-induced SP-1 binding activity", "setting": "SP-1", "value": "decreased"}, {"measurement": "effect on basal SP-1 binding activity", "setting": "SP-1; LA alone", "value": "no effect"}, {"measurement": "effect on LPS-induced fractalkine expression in arterial endothelial cells and villous endothelium", "setting": "[1]", "value": "dramatically suppressed"}, {"measurement": "effect on TNF-α- and/or IL-1β-induced expression of fractalkine protein", "setting": "fractalkine protein", "value": "decreased"}, {"measurement": "suppression of IL-1β-induced expression of fractalkine mRNA", "setting": "fractalkine mRNA; IL-1β 15 ng/ml, LA 4 mmol/L, FIG. 4b", "value": "70-80%"}, {"measurement": "effect on expression of fractalkine mRNA induced by TNF-α and IL-1β together", "setting": "fractalkine mRNA; TNF-α 10 ng/ml and IL-1β 15 ng/ml together, FIG. 4c", "value": "suppressed"}, {"measurement": "suppression of TNF-α-induced expression of fractalkine mRNA", "setting": "fractalkine mRNA; TNF-α 10 ng/ml, LA 4 mmol/L, FIG. 4a", "value": "70-80%"}, {"measurement": "effect on LPS-induced fractalkine expression in arterial endothelial cells, endocardium, and endocardial surface of cardiac valves", "setting": "[2]", "value": "dramatically suppressed"}, {"measurement": "decrease in monocyte adhesion to IL-1β-stimulated HUVECs", "setting": "[3]; IL-1β 15 ng/ml, FIG. 6a, 6b", "value": 76, "unit": "%"}, {"measurement": "decrease in monocyte adhesion to TNF-α-stimulated HUVECs", "setting": "[3]; TNF-α 10 ng/ml, FIG. 6a, 6b", "value": 63, "unit": "%"}, {"measurement": "effect on HUVEC adhesiveness for monocytes, substance alone", "setting": "[3]; unstimulated HUVECs", "value": "no effects"}, {"measurement": "effect on basal NF-κB (p65/p50) binding activity", "setting": "NF-κB (p65/p50); LA alone", "value": "no effect"}, {"measurement": "effect on TNF-α- and/or IL-1β-induced NF-κB (p65/p50) binding activity", "setting": "NF-κB (p65/p50); TNF-α 10 ng/ml and/or IL-1β 15 ng/ml, LA 4 mmol/L, FIG. 5a", "value": "suppressed"}, {"measurement": "effect on LPS-increased serum TNF-α", "setting": "serum TNF-α; rats pretreated with LA, then LPS, FIG. 1a", "value": "significantly inhibited"}, {"measurement": "effect on LPS-increased serum IL-1β", "setting": "serum IL-1β; rats pretreated with LA, then LPS, FIG. 1b", "value": "significantly inhibited"}]}, {"molecule": "IL-1β: proinflammatory cytokine used to stimulate HUVECs", "values": [{"measurement": "increase in the adhesion of monocytes compared to treatment with control buffer", "setting": "[3]", "value": 4, "unit": "fold"}]}, {"molecule": "TNF-α", "values": [{"measurement": "increase in the adhesion of monocytes compared to treatment with control buffer", "setting": "[3]", "value": 5, "unit": "fold"}]}, {"molecule": "lipopolysaccharide [LPS]", "values": [{"measurement": "serum level of TNF-α", "setting": "serum TNF-α; 3 hours after LPS", "value": "975 ± 121", "unit": "pg/mL"}, {"measurement": "serum level of TNF-α", "setting": "serum TNF-α; 4 hours after LPS", "value": 0, "unit": "pg/mL"}, {"measurement": "serum level of IL-1β", "setting": "serum IL-1β; 1 hour after LPS", "value": "104 ± 20", "unit": "pg/mL"}, {"measurement": "serum level of IL-1β", "setting": "serum IL-1β; 2 hours after LPS", "value": "232 ± 45", "unit": "pg/mL"}, {"measurement": "serum level of IL-1β", "setting": "serum IL-1β; 3 hours after LPS", "value": "212 ± 19", "unit": "pg/mL"}]}]}
